Results: patent US9730447B2, “Fungicidal amides” (E I DU PONT DE NEMOURS AND COMPANY, priority 2013, dated 2017)

Assays:
Assay type in all cases: in vivo
[1] = system: Botrytis cinerea; assay: Test A: preventive spray on tomato seedlings, Botrytis cinerea (gray mold), visual disease rating; settings: 100 = 100% disease control, 0 = no control relative to controls, unmarked values
Source text: General protocol for preparing test suspensions for Tests A-E: the test compounds were first dissolved in acetone in an amount equal to 3% of the final volume and then suspended at the desired concentration (in ppm) in acetone and purified water (50/50 mix by volume) containing 250 ppm of the surfactant Trem® 014 (polyhydric alcohol esters). The resulting test suspensions were then used in Tests A-E. Compounds were sprayed with either a 40 ppm or 10 ppm (*) test suspension to the point of run-off on the test plants which is the equivalent of a rate of 160 g ai/ha or 40 g ai/ha, respectively.
The test suspension was sprayed to the point of run-off on tomato seedlings. The following day the seedlings were inoculated with a spore suspension of Botrytis cinerea (the causal agent of gray mold on many crops) and incubated in a saturated atmosphere at 20° C. for 48 h, and moved to a growth chamber at 27° C. for 2 days, after which time visual disease ratings were made.
Results for Tests A-E are given in Table A. In the Table, a rating of 100 indicates 100% disease control and a rating of 0 indicates no disease control (relative to the controls). A dash (-) indicates no test results.

[2] = system: Erysiphe graminis f. sp. tritici; assay: Test E: preventive spray on wheat seedlings, Erysiphe graminis f. sp. tritici (wheat powdery mildew), visual disease rating; settings: 100 = 100% disease control, 0 = no control, unmarked values
How it was run: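 Wheat seedlings were sprayed to run-off with 40 or 10 ppm suspension (160 or 40 g ai/ha) and dusted with spores the next day. They were then kept 8 days at 20 °C. Disease was rated visually as % control relative to untreated controls (0–100).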

[3] = system: Puccinia recondite f. sp. tritici; assay: Test D: preventive spray on wheat seedlings, Puccinia recondite f. sp. tritici (wheat leaf rust), visual disease rating; settings: 100 = 100% disease control, 0 = no control, unmarked values
How it was run: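 Wheat seedlings sprayed to run-off with 40 ppm (160 g ai/ha) or 10 ppm (40 g ai/ha) suspension in acetone/water with 250 ppm surfactant, inoculated next day with leaf rust spores. After 24 h saturated at 20 °C then 6 days at 20 °C, visual rating of disease control (0–100) relative to controls.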

[4] = system: Septoria tritici; assay: Test C: preventive spray on wheat seedlings, Septoria tritici (wheat leaf blotch), visual disease rating; settings: 100 = 100% disease control, 0 = no control, unmarked values
How it was run: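 Wheat seedlings sprayed to run-off at 40 ppm or 10 ppm (160 or 40 g ai/ha) in acetone/water with surfactant, inoculated with Septoria tritici spores next day. Held 48 h saturated at 24 °C, then 21 days at 20 °C. Visual rating scored as % disease control relative to controls.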

[5] = system: Stagonospora nodorum (also known as Septoria nodorum); assay: Test B: preventive spray on wheat seedlings, Stagonospora nodorum (wheat glume blotch), visual disease rating; settings: 100 = 100% disease control, 0 = no control, unmarked values
How it was run: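 Compounds in acetone/water (50/50) with 250 ppm Trem 014 surfactant were sprayed to run-off at 40 ppm (160 g ai/ha) or 10 ppm (40 g ai/ha). Seedlings were inoculated with S. nodorum spores the next day, then held 48 h saturated at 20 °C and 6 days in a growth chamber at 20 °C. Visual rating as % disease control vs untreated.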

SMILES	Test A disease control rating [1]	Test E disease control rating [2]	Test D disease control rating [3]	Test C disease control rating [4]	Test B disease control rating [5]
Cn1cc(C(=O)Nc2ccccc2-c2ccc(-n3cc(-c4cccc(F)c4)cn3)nc2)c(C(F)F)n1 [compound 5]	100%	99%	100%	100%	100%
Cn1cc(C(=O)Nc2ccccc2-c2ccc(-n3cc(-c4ccccc4F)cn3)nc2)c(C(F)F)n1 [compound 7]	100%	97%	100%	100%	100%
COc1ccccc1-c1cnn(-c2ccc(-c3ccccc3NC(=O)c3cn(C)nc3C(F)F)cn2)c1 [compound 8]	99%	99%	100%	99%	99%
COc1cccc(-c2cnn(-c3ccc(-c4ccccc4NC(=O)c4cn(C)nc4C(F)F)cn3)c2)c1 [compound 9]	100%	100%	100%	100%	100%
COc1cc(OC)cc(-c2cnn(-c3ccc(-c4ccccc4NC(=O)c4cn(C)nc4C(F)F)cn3)c2)c1 [compound 10]	100%	97%	100%	100%	100%
Cn1cc(C(=O)Nc2ccccc2-c2ccc(-n3ccc(Br)n3)nc2)c(C(F)F)n1 [compound 11]	100%	99%	100%	100%	100%
O=C(Nc1ccccc1-c1ccc(-n2ccc(Br)n2)nc1)c1ncccc1C(F)(F)F [compound 13]	98%	99%	100%	100%	98%
Cc1ccc(-c2ccc(-c3ccccc3NC(=O)c3cn(C)nc3C(F)F)cn2)s1 [compound 21]	99%	43%	100%	81%	97%
Cc1ccc(-c2ccc(-c3ccccc3NC(=O)c3cn(C)nc3C(F)F)cn2)o1 [compound 22]	94%	21%	100%	33%	0%
O=C(Nc1ccccc1-c1ccc(-n2ccc(C(F)(F)F)n2)nc1)c1ncccc1Cl [compound 23]	20%	99%	96%	100%	0%
O=C(Nc1ccccc1-c1ccc(-n2ccc(C(F)(F)F)n2)nc1)c1nccnc1C(F)(F)F [compound 24]	99%	100%	100%	100%	100%
